Positions count from the first letter of the chain named.
Key:
[1] = biological target: T1, Androgen Receptor ABS (Rattus norvegicus, UniProt P15207); assay: Androgen (DHT) displacement, Polar Screen Androgen Receptor Competitor Green Assay Kit; type: binding; details: for Androgen Displacement (Yes/No): fluorescence polarization kit; for Androgen displacement: at 50 µM
T1 construct: purchased
T1 sequence (P15207 647-902 limits assumed): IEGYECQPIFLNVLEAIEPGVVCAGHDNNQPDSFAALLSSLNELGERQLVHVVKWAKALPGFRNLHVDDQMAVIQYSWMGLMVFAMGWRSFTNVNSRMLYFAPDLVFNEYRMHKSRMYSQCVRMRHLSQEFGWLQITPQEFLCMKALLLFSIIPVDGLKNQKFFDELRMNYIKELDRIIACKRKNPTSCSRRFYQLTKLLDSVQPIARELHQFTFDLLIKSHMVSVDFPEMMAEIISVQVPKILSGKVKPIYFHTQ
Description: Androgen displacement was assessed with the Polar Screen Androgen Receptor Competitor Green Assay Kit as per the instructions of the manufacturer.

[2] = biological target: T2, AR (LNCaP cells, which carry the T878A AR mutation) (Homo sapiens, UniProt P10275, T878A); assay: eGFP cellular AR transcription assay in LNCaP cells (LN-ARR2PB-eGFP); type: cell-based; details: for Partial agonistic effect in eGFP assay: with R1881, high concentrations; for Anti-AR activity in eGFP assay: eGFP-expressing LNCaP cells
T2 construct: LNCaP cells, which carry the T878A AR mutation; endogenous in cells; host or cells: LNCaP (LN-ARR2PB-eGFP)
T2 sequence (P10275 1-920 T878A): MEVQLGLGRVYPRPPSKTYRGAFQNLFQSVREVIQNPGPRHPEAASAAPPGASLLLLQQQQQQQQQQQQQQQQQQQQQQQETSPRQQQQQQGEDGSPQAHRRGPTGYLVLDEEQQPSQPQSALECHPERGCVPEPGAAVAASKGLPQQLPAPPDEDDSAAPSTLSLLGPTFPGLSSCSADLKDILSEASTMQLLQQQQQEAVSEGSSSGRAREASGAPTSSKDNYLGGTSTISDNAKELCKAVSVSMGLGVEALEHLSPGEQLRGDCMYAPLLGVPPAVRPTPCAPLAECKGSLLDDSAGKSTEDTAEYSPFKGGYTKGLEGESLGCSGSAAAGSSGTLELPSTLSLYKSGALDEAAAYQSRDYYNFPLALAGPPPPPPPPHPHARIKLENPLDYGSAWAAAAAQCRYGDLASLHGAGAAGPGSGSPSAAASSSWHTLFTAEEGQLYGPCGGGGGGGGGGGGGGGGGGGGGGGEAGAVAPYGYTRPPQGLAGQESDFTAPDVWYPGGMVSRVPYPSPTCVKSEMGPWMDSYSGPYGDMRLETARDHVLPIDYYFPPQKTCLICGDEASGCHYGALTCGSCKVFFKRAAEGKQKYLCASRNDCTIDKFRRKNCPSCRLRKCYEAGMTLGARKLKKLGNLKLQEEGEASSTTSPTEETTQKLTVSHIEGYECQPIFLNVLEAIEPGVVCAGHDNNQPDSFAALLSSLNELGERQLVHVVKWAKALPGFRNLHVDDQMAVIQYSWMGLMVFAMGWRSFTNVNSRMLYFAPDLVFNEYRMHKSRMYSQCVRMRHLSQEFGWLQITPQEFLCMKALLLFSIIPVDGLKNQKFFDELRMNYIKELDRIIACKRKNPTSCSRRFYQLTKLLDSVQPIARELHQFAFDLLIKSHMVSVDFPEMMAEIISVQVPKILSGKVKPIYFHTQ
Description: AR transcriptional activity was assayed as previously described. Briefly, LNCaP human prostate cancer cells (LN-ARR2PB-eGFP), stably transfected with eGFP reporter driven by an androgen responsive probasin-derived promoter (ARR2PB), were grown in phenol red free RPMI 1640 media supplemented with 5% charcoal stripped serum (CSS). After 5 days, the cells were plated into a 96-well plate (35,000 cells/well) with 0.1 nM of the synthetic androgen R1881 and increasing concentrations (0−100 μM) of test compounds. Fluorescence (excitation 485 nm, emission 535 nm) was measured after 3 days of incubation with the compounds.

[3] = test system: AR with T878A and W742C mutations; set-up: method as in PMID 12517791; details: cited from earlier work
[4] = biological target: T3, wild type AR LBD (Homo sapiens, UniProt P10275); assay: Biolayer interferometry (BLI), wild type LBD; type: binding
T3 construct: made in house; host or cells: E. coli BL21-DE3 co-transformed with pBirACm
T3 sequence (P10275 669-900 limits assumed): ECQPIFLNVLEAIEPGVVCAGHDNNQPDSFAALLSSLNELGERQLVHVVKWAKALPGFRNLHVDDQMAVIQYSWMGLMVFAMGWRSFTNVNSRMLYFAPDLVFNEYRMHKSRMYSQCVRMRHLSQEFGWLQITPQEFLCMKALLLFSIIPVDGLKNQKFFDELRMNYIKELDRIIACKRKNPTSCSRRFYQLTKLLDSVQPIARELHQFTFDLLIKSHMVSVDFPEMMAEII
Description: (§1) The direct reversible interaction between small molecules and the AR was quantified by BLI using OctetRED (ForteBio, Fremont, CA, USA). The wild type and T878A-LDB in fusion with an N-terminal (His)6-avidin ([…]) tag were expressed in E. coli BL21-DE3 cells co-transformed with pBirACm plasmid (Avidity), which expresses a biotin ligase leading to the biotynilation of the avidin tag on the LBD. Cells were grown in LB media at 37 °C to an OD600nm = 0.5 and then induced with 0.5 mM isopropyl-β-D-thiogalactoside. A measure of 20 µM of dihydrotestosterone (DHT) and 0.15 mM biotin were added and the cells were incubated at 16 °C for 18 to 20 h. Cells were then resuspended and lysed in buffer containing 500 mM Li2SO4, 50mM HEPES pH7.2, 10% Glycerol, 0.1% Octyl-beta-Glucoside, 20 µM of DHT, 5 mM β-mercaptoethanol, 10 mM imidazole and 0.1 mM phenylmethanesulfonyl fluoride. […] After an overnight dialysis against 150 mM Li2SO4, 50 mM HEPES pH7.2, 10% Glycerol, 0.1% Octyl-beta-Glucoside, 20 µM of DHT and 0.2 mM tris(2-carboxyethyl)phosphine, purified proteins at 50 µg/mL were bound to the super-streptavidin sensors overnight at 4 °C. The assay was performed at 20 °C in the dialysis buffer supplemented with 5% dimethyl sulfoxide (DMSO) which was also used as our reference measurement.

[5] = biological target: T4, T878A AR LBD (Homo sapiens, UniProt P10275, T878A); assay: Biolayer interferometry (BLI), T878A LBD; type: binding
T4 construct: made in house; host or cells: E. coli BL21-DE3 co-transformed with pBirACm
T4 sequence (P10275 669-900 T878A limits assumed): T3 sequence (P10275 669-900 limits assumed) with T210A
Description: as §1

[6] = biological target: T5, T878A-AR mutant (Homo sapiens, UniProt P10275, T878A); assay: Luciferase reporter assay, PC3 cells transfected with T878A-AR; type: cell-based; details: T878A-AR, high concentrations, absence of R1881
T5 construct: Full-length human wild type AR was cloned into pcDNA3.1 expression plasmid; expressed in transfected cells; host or cells: PC3
T5 sequence (P10275 1-920 T878A): T2 sequence (P10275 1-920 T878A)
Description: Full-length human wild type AR was cloned into pcDNA3.1 expression plasmid (Invitrogen, Waltham, MA, USA) with a CMV promoter. The T878A mutant (T878A-AR) was generated with the Quikchange Mutagenesis Kit (Stratagene, San Diego, CA, USA) using hARWT plasmid as a template. Androgen-starved PC3 cells were seeded in 96-well plates (3000 cells/well) in RPMI 1640 + 5% CSS for 24 h followed by transfection with 50 ng of hARWT or hART878A along with 50 ng of ARR3tk-luciferase reporter construct (100 ng total plasmid DNA) and 0.3 µL/well TransIT20/20 transfection reagent (TT2020, Mirus, Madison, Wisconsin, WI, USA) for 48 h. […] Cell lysis was carried out with 60 µL 1X passive lysis buffer/well (Promega, Madison, Wisconsin, WI, USA). The luminescence from 20 µL of cell lysate and 50 µL of Luciferase assay reagent (Promega, Madison, Wisconsin, WI, USA) was recorded on a TECAN M200pro plate reader.

[7] = LNCaP eGFP reporter (ARR2PB promoter), 0.1 nM R1881, 3 days

Q: Which “Androgen Displacement (Yes/No)” value [1] does the source give for `c1cc(-c2csc(N3CCOCC3)n2)ccn1` [VPC14435] here?
A: Its value is “No”.

Q: And the “Partial agonistic effect in eGFP assay” value ([2]; LNCaP)?
A: The value was “no undesired partial agonistic effects were observed”.

Q: What about the “Anti-AR activity in eGFP assay” value [2] of the same compound?
A: The value was “maintained good potency”.

Q: Which “Agonist behaviour on mutated AR” value [3] does the source give for `C[C@](O)(CS(=O)(=O)c1ccc(F)cc1)C(=O)Nc1ccc(C#N)c(C(F)(F)F)c1` [R-bicalutamide] here?
A: Its value is “acts as an agonist only when the T878A mutation is also coupled with W742C”.

Q: For `c1cc(-c2csc(N3CCOCC3)n2)cs1` [VPC14404], which Androgen displacement [1] is on record?
A: The Androgen displacement was <10%.

Q: And the “Partial agonistic effect in eGFP assay” value ([2]; LNCaP)?
A: Its value is “no undesired partial agonistic effects were observed”.

Q: What about the “Anti-AR activity in eGFP assay” value [2] of the same compound?
A: The value was “maintained good potency”.

Q: With `c1cncc(-c2csc(N3CCOCC3)n2)c1` [VPC14439] as the compound, how does the Androgen displacement [1] read?
A: The Androgen displacement was 30%.

Q: What about the “Androgen Displacement (Yes/No)” value [1] of the same compound?
A: The value was “Yes”.

Q: And the “Concentration above which partial agonism is seen in the eGFP assay” value ([2]; LNCaP, 0.1 nM R1881)?
A: Its value is “above 3 µM”.

Q: Which “Reporter eGFP IC50” value [2, 7] does the source give for `c1sc(N2CCOCC2)nc1C1CCCCC1` [VPC14406] here?
A: The value was “inactive”.

Q: What about the “Anti-AR activity in eGFP assay” value [2] of the same compound?
A: The value was “lost their anti-AR activity”.

Q: For `c1sc(N2CCOCC2)nc1C1CCCC1` [VPC14403], which “Reporter eGFP IC50” value [2, 7] is on record?
A: Its value is “inactive”.

Q: And the “Anti-AR activity in eGFP assay” value [2]?
A: The value was “lost their anti-AR activity”.

Q: Which “Direct binding to wild-type LBD by BLI” value [4] does the source give for `Brc1ncn(-c2csc(N3CCOCC3)n2)c1Br` [VPC14449] here?
A: Its value is “not binding”.

Q: And the Androgen displacement [1]?
A: The Androgen displacement was < 10%.

Q: What about the Androgen displacement ([1]; listed as 14449) of the same compound?
A: The Androgen displacement was <10%.

Q: What about the “Direct binding to T878A LBD by BLI” value [5] of the same compound?
A: Its value is “not binding”.

Q: And the IC50 [2, 7]?
A: The IC50 was 150 ± 40 nM.

Q: What about the “Partial agonistic effect in eGFP assay” value ([2]; LNCaP) of the same compound?
A: Its value is “no undesired partial agonistic effects were observed”.

Q: What about the “Anti-AR activity in eGFP assay” value [2] of the same compound?
A: Its value is “maintained good potency”.

Q: And the “Reduction of AR stimulation in comparison with VPC14368” value [6]?
A: Its value is ~ 80%.

Q: Which “Androgen Displacement (Yes/No)” value [1] does the source give for `c1ccc(-c2csc(N3CCOCC3)n2)nc1` [VPC14436] here?
A: The value was “No”.

Q: For `c1cc2c(cc1-c1csc(N3CCOCC3)n1)CCCC2` [VPC14291], which “Reporter eGFP IC50” value [2, 7] is on record?
A: Its value is “inactive”.

Q: What about the “Anti-AR activity in eGFP assay” value [2] of the same compound?
A: Its value is “lost their anti-AR activity”.

Reference: paper PMC9497135, “Structure-Based Study to Overcome Cross-Reactivity of Novel Androgen Receptor Inhibitors” (Cells, 2022)
